Patent publication US10953012B2, “Heterocyclic compounds for the inhibition of pask” (BioEnergenix LLC, priority 2011, dated 2021)
pIC50: −log10 of the molar value.

Molecular target: PASK (Homo sapiens (Human), UniProt Q96RG2)
Assay: PAS Kinase FRET Assay
Assay type: biochemical
Conditions: TR-FRET assay; read-out: IC50 Kinase Domain
Description: The aim of the FRET assay is to determine the inhibition potential of test compounds on targeted kinase. This assay platform provides a homogenous screening method for measuring kinase activity by quantitating the amount of phospho-substrate in solution following a kinase reaction.
In the presence of kinase and ATP, the Ulight-peptide is phosphorylated and captured by an anti-phospho-substrate antibody, which brings the Eu chelate donor and Ulight acceptor dyes into close proximity. Upon excitation at 340 nm, the Eu chelate transfers its energy to the Ulight dye, resulting in a fluorescent light emission at 665 nm
Titration of kinase at 1 mM ATP was achieved via the following protocol. After making serial three-fold dilutions of PASK (Invitrogen) in reaction buffer across the plate; 5 μl of kinase dilution and 5 μl substrate/ATP mix were added to the wells of the white Optiplate-384 (PerkinElmer). The contents of the plate were and incubated at RT for 1 h. The reaction was stopped by adding 5 μl of stop solution to each test well followed by mixing and incubation at RT for 10 minutes. 5 μl of detection mix (detection antibody diluted in detection buffer) was added; the contents of the plate were mixed and then incubated in the dark for 1 hour at RT. The signal was recorded at TR-FRET mode (665 nm/615 nm). The results were graphed to calculate the EC50.
Titration of ATP at the EC50 concentration of kinase to determine ATP Km, app. was performed using the following method. After making serial dilutions of ATP (Invitrogen), 5 μl of ATP dilution and 5 μl substrate/kinase mix were added to the wells of the white Optiplate-384 (PerkinElmer). The contents of the plate were and incubated at RT for 1 h. The reaction was stopped by adding 5 μl of stop solution to each test well followed by mixing and incubation at RT for 10 minutes. 5 μl of detection mix (detection antibody diluted in detection buffer) was added; the contents of the plate were mixed and then incubated in the dark for 1 hour at RT. The signal was recorded at TR-FRET mode (665 nm/615 nm). The results were graphed to calculate the EC50 as the ATP Km, app.
Compound screening was done via the following method. 10 mM stock solution of test compound in DMSO was prepared by dissolving test compound in DMSO at RT for 1 hour, and then sonicating at 100% output for 8 minutes. If compound is not soluble under this condition, it was diluted to 3 mM. Kinase reaction buffer was prepared containing 10 mM MgCl2, 50 mM HEPES, 1 mM EGTA, 0.01% TWEEN-20, 2 mM DTT. Serial dilutions of the test compounds were prepared at 4×final assay concentrations using Freedom EVO200® dispensing system as follows: 12×10^−5 M, 4×10^−5 M, 1.33×10^−5 M, 4.44×10^−6 M, 1.48×10^−6 M, 4.92×10^−7 M, 1.65×10^−7 M, […], 1.82×10^−8M, 6.09×10^−9, 2.03×10^−9 M. Test compounds (2.5 μl at 4× the final assay concentration) was added to wells using Freedom EVO200® dispensing system. As a positive control, 2.5 μl of positive compound was added to assay wells, and 2.5 μl of DMSO to assay wells as vehicle control. Kinase solution was prepared in reaction buffer at 2×final assay concentration. Kinase solution (5 μl) was added to each well of the assay plate. The substrate and ATP solution was prepared in kinase reaction buffer at 4×final assay concentration. The kinase reaction was started by adding 2.5 μl of substrate+ATP mix solution to each well of the assay plate. The plate is mixed on a plate shaker; then covered and allowed to react for 2 hours in the dark at 25° C. without shaking. The reaction was stopped by adding 5 μl of stop solution to each test well followed by mixing and incubation at RT for 10 minutes in the dark. 5 μl of detection mix (detection antibody diluted in detection buffer) was added; the contents of the plate were mixed and then incubated in the dark for 1 hour at RT. The signal was recorded at TR-FRET mode (665 nm/615 nm).

Sequence of PASK (Q96RG2 999-1251): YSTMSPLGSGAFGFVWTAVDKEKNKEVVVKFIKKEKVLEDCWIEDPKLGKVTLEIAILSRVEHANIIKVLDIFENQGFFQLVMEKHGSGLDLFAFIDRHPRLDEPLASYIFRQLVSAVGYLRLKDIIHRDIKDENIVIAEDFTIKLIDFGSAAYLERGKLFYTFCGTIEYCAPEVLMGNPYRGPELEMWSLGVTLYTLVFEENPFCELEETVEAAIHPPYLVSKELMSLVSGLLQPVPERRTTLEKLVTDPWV

SMILES | pIC50
Cn1ncc2cc(-c3cc(=O)n4ncc(-c5ccccn5)c4[nH]3)ccc21 [Example 186, 5-(1-Methyl-1H-indazol-5-yl)-3-(pyridin-2-yl)pyrazolo[1,5-a]pyrimidin-7(4H)-one] | ≥ 5.00
O=c1cc(-c2ccc3[nH]ncc3c2)[nH]c2c(-c3ccccn3)c(O)nn12 [Example 187, 2-Hydroxy-5-(1H-indazol-5-yl)-3-(pyridin-2-yl)pyrazolo[1,5-a]pyrimidin-7(4H)-one] | ≥ 5.00
Cc1n[nH]c2ccc(-c3cc(=O)n4nc(N)c(-c5ccccn5)c4[nH]3)cc12 [Example 188, 2-Amino-5-(3-methyl-1H-indazol-5-yl)-3-(pyridin-2-yl)pyrazolo[1,5-a]pyrimidin-7(4H)-one] | ≥ 5.00
Cc1n[nH]c2ccc(-c3cc(=O)n4ncc(-c5ccccn5)c4[nH]3)cc12 [Example 189, 5-(3-Methyl-1H-indazol-5-yl)-3-(pyridin-2-yl)pyrazolo[1,5-a]pyrimidin-7(4H)-one] | ≥ 5.00
CCc1nn2c(=O)cc(-c3ccc(Cl)cc3)[nH]c2c1-c1ccccn1 [Example 190, 5-(4-Chlorophenyl)-2-ethyl-3-(pyridin-2-yl)pyrazolo[1,5-a]pyrimidin-7(4H)-one] | ≥ 5.00
O=c1cc(-c2ccc3[nH]nnc3c2)[nH]c2c(-c3ccccn3)cnn12 [Example 192, 5-(1H-Benzo[d][1,2,3]triazol-5-yl)-3-(pyridin-2-yl)pyrazolo[1,5-a]pyrimidin-7(4H)-one] | ≥ 5.00
Cn1nnc2cc(-c3cc(=O)n4nc(N)c(-c5ccccn5)c4[nH]3)ccc21 [Example 194, 2-Amino-5-(1-methyl-1H-benzo[d][1,2,3]triazol-5-yl)-3-(pyridin-2-yl)pyrazolo[1,5-a]pyrimidin-7(4H)-one] | ≥ 5.00
Cn1nnc2cc(-c3cc(=O)n4ncc(-c5ccccn5)c4[nH]3)ccc21 [Example 195, 5-(1-Methyl-1H-benzo[d][1,2,3]triazol-5-yl)-3-(pyridin-2-yl)pyrazolo[1,5-a]pyrimidin-7(4H)-one] | ≥ 5.00
CCc1nn2c(=O)cc(-c3ccc4c(cnn4C)c3)[nH]c2c1-c1ccccn1 [Example 196, 2-Ethyl-5-(1-methyl-1H-indazol-5-yl)-3-(pyridin-2-yl)pyrazolo[1,5-a]pyrimidin-7(4H)-one] | ≥ 5.00
Cc1nn2c(=O)cc(-c3ccc4[nH]nnc4c3)[nH]c2c1-c1ccccn1 [Example 200, 5-(1H-Benzo[d][1,2,3]triazol-5-yl)-2-methyl-3-(pyridin-2-yl)pyrazolo[1,5-a]pyrimidin-7(4H)-one] | ≥ 5.00
CC(=O)Nc1nn2c(=O)cc(-c3ccc4[nH]nnc4c3)[nH]c2c1-c1ccccn1 [Example 202, N-(5-(1H-Benzo[d][1,2,3]triazol-5-yl)-7-oxo-3-(pyridin-2-yl)-4,7-dihydropyrazolo[1,5-a]pyrimidin-2-yl)acetamide] | ≥ 5.00
CCC(=O)Nc1nn2c(=O)cc(-c3ccc4nn[nH]c4c3)[nH]c2c1-c1ccccn1 [Example 203, N-(5-(1H-Benzo[d][1,2,3]triazol-6-yl)-7-oxo-3-(pyridin-2-yl)-4,7-dihydropyrazolo[1,5-a]pyrimidin-2-yl)propionamide] | ≥ 5.00
CCn1ncc2cc(-c3cc(=O)n4nc(NC(C)=O)c(-c5ccccn5)c4[nH]3)ccc21 [Example 204, N-(5-(1-Ethyl-1H-indazol-5-yl)-7-oxo-3-(pyridin-2-yl)-4,7-dihydropyrazolo[1,5-a]pyrimidin-2-yl)acetamide] | ≥ 5.00
CCc1nn2c(=O)cc(-c3ccc4[nH]nnc4c3)[nH]c2c1-c1ccccc1 [Example 206, 5-(1H-Benzo[d][1,2,3]triazol-5-yl)-2-ethyl-3-phenylpyrazolo[1,5-a]pyrimidin-7(4H)-one] | ≥ 5.00
O=c1cc(-c2ccc3[nH]nnc3c2)[nH]c2c(Cc3ccccc3)cnn12 [Example 207, 5-(1H-Benzo[d][1,2,3]triazol-5-yl)-3-benzylpyrazolo[1,5-a]pyrimidin-7(4H)-one] | ≥ 5.00
Nc1nn2c(=O)cc(-c3ccc4[nH]nnc4c3)[nH]c2c1Cc1ccccc1 [Example 208, 2-Amino-5-(1H-benzo[d][1,2,3]triazol-5-yl)-3-benzylpyrazolo[1,5-a]pyrimidin-7(4H)-one] | ≥ 5.00
O=c1cc(-c2ccc3[nH]nnc3c2)[nH]c2c(Cc3ccccc3)c(O)nn12 [Example 209, 5-(1H-Benzo[d][1,2,3]triazol-5-yl)-3-benzyl-2-hydroxypyrazolo[1,5-a]pyrimidin-7(4H)-one] | ≥ 5.00
O=c1cc(-c2ccc3c(c2)OCO3)[nH]c2c(Cc3ccccn3)cnn12 [Example 211, 5-(Benzo[d][1,3]dioxol-5-yl)-3-(pyridin-2-ylmethyl)-pyrazolo[1,5-a]pyrimidin-7(4H)-one] | ≥ 5.00
Cc1nn2c(=O)cc(-c3ccc4[nH]nnc4c3)[nH]c2c1-c1ccccc1 [Example 212, 5-(1H-Benzo[d][1,2,3]triazol-5-yl)-2-methyl-3-phenylpyrazolo[1,5-a]pyrimidin-7(4H)-one] | ≥ 5.00
O=c1cc(-c2ccc3[nH]nnc3c2)[nH]c2c(-c3ccccc3)c(O)nn12 [Example 215, 5-(1H-Benzo[d][1,2,3]triazol-5-yl)-2-hydroxy-3-phenylpyrazolo[1,5-a]pyrimidin-7(4H)-one] | ≥ 5.00
Cc1nn2c(=O)cc(-c3ccc4[nH]nnc4c3)[nH]c2c1-c1ccc(Cl)cc1 [Example 216, 5-(1H-Benzo[d][1,2,3]triazol-5-yl)-3-(4-chlorophenyl)-2-methylpyrazolo[1,5-a]pyrimidin-7(4H)-one] | ≥ 5.00
Cc1nn2c(=O)cc(-c3ccc4[nH]ncc4c3)[nH]c2c1-c1ccccn1 [Example 219, 5-(1H-Indazol-5-yl)-2-methyl-3-(pyridin-2-yl)pyrazolo[1,5-a]pyrimidin-7(4H)-one] | ≥ 5.00
Cc1nn2c(=O)cc(-c3ccc4[nH]ncc4c3)[nH]c2c1-c1ccc(Cl)cc1 [Example 220, 3-(4-Chlorophenyl)-5-(1H-indazol-5-yl)-2-methylpyrazolo[1,5-a]pyrimidin-7(4H)-one] | ≥ 5.00
Nc1nn2c(=O)cc(-c3ccc4[nH]ncc4c3)[nH]c2c1-c1ccc(Cl)cc1 [Example 221, 2-Amino-3-(4-chlorophenyl)-5-(1H-indazol-5-yl)pyrazolo[1,5-a]pyrimidin-7(4H)-one] | ≥ 5.00
O=c1cc(-c2ccc3[nH]ncc3c2)[nH]c2c(-c3ccc(Cl)cc3)c(O)nn12 [Example 222, 3-(4-Chlorophenyl)-2-hydroxy-5-(1H-indazol-5-yl)pyrazolo[1,5-a]pyrimidin-7(4H)-one] | ≥ 5.00
CCCNC(=O)c1c(N)nn2c(=O)cc(-c3ccc4c(c3)OCCO4)[nH]c12 [Example 226, 2-Amino-5-(2,3-dihydrobenzo[b][1,4]dioxin-6-yl)-7-oxo-N-propyl-4,7-dihydropyrazolo[1,5-a]pyrimidine-3-carboxamide] | ≥ 5.00
CCCNC(=O)c1c(O)nn2c(=O)cc(-c3ccc4[nH]nnc4c3)[nH]c12 [Example 228, 5-(1H-Benzo[d][1,2,3]triazol-5-yl)-2-hydroxy-7-oxo-N-propyl-4,7-dihydropyrazolo[1,5-a]pyrimidine-3-carboxamide] | ≥ 5.00
Cc1c(-c2cc(=O)n3ncc(-c4ccccn4)c3[nH]2)ccc2c1OCO2 [Example 229, 5-(4-Methylbenzo[d][1,3]dioxol-5-yl)-3-(pyridin-2-yl)pyrazolo[1,5-a]pyrimidin-7(4H)-one] | ≥ 5.00
Cc1c(-c2cc(=O)n3nc(N)c(-c4ccccn4)c3[nH]2)ccc2c1OCO2 [Example 230, 2-Amino-5-(4-methylbenzo[d][1,3]dioxol-5-yl)-3-(pyridin-2-yl)pyrazolo[1,5-a]pyrimidin-7(4H)-one] | ≥ 5.00
